PMC8380212, “^18F-labeled tracers targeting fibroblast activation protein” (EJNMMI Radiopharmacy and Chemistry, 2021)

Columns and labels:
FAP (HT-1080-FAP cells) = molecular target: T1, FAP (HT-1080-FAP cells) (Homo sapiens, UniProt Q12884); test: Competition experiments with unlabeled precursor on HT-1080-FAP cells; assay type: binding; conditions: co-incubation with unlabeled precursor for 60 min
T1 construct: expressed in transfected cells; host or cells: HT-1080 cells transfected with FAP (HT-1080-FAP)
T1 sequence (Q12884 1-760): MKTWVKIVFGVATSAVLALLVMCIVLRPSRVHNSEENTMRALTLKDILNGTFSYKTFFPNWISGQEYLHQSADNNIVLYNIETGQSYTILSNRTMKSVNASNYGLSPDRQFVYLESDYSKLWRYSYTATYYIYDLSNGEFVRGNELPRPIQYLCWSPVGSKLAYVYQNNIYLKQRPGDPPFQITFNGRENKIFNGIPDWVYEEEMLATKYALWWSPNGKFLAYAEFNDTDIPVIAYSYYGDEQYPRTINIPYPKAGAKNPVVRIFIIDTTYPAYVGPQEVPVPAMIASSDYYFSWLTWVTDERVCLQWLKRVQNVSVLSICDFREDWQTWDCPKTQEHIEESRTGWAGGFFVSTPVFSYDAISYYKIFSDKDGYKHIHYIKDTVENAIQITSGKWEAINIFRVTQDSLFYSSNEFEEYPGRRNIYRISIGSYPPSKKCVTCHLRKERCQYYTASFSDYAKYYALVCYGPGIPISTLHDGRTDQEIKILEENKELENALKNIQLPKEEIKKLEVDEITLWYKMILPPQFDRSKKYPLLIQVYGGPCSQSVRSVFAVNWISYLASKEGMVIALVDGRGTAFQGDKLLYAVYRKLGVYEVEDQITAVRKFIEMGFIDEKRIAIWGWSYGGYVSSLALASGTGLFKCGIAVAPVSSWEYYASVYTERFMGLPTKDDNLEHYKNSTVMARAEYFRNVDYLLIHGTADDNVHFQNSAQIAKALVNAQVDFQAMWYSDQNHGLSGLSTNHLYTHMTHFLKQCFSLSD
Method: (§1) The binding properties of the FAPI derivatives were evaluated using the FAP‐transfected HT‐1080‐FAP and CD26 expressing HEK-CD26 cells. All cells were cultivated in Dulbecco's modified Eagle's medium (DMEM) containing 10% fetal calf serum (FCS) at 37 °C/5% carbon dioxide. Cells were seeded in 6-well plates and cultivated to a final confluence of approximately 80–90% (1.2 to 2.0 × 10^6 cells/well). After washing with FCS free medium, for each well ca. 3 kBq of the radiolabeled compound (10–20 GBq/µmol for [^18F]AlF-labeling) was added to the cells in FCS free medium. On completion of the individual incubation time, cells were washed with PBS and treated with 1.4 mL lysis buffer (0.3 m NaOH, 0.2% SDS) before being transferred to measuring tubes. Competition experiments were performed by co-incubation with the unlabeled precursor for 60 min. Radioactivity was determined in a Wizard Gamma Counter (Perkin Elmer), normalized to 10^6 cells and calculated as percentage of the applied dose (%AD). Each experiment was performed in triplicate.

[1] = test system: U87MG- and A549-xenograft models; conditions: in vivo; cited from earlier work
[2] = Determination of logD values (1-octanol / PBS); assay type: physicochemical; conditions: 1-octanol / phosphate buffered saline, pH 7.4
Method: All experiments for the determination of logD values were performed in triplicate. For the determination by means of radioactivity, around 5 × 10^6 cpm in ca. 1 µL of radioactive stock solutions (water/acetonitrile 1:1) were added to 100 µL phosphate buffered saline (PBS, pH 7.4) and 100 µL of 1-octanol. The mixture was vortexed for 1 min, followed by 5 min of centrifugation for phase separation. A sample of each phase (10 or 50 µL) was measured for radioactivity per volume (Packard Cobra II Autogamma, GMI Inc., USA). In case of FAPI-72 and -73, the reference compounds [^19F]-FAPI-72 and -73 were dissolved in PBS at a concentration of 1 mg/mL. 50 µL of these solutions were each mixed with 50 µL 1-octanol and processed by vortexing and centrifugation as described above. 1 µL of each phase was analyzed by HPLC and the individual content of compound was determined by peak integration. The area under the peaks of the individual runs was used to calculate the log D value.
Fig. 1 Overview of the synthesized precursors discussed in this study. The corresponding log D values were determined by detection of the radiolabeled tracer in 1-octanol and phosphate buffered saline (pH 7). For values labeled with an asterix, the log D was calculated from the relative content of the non-radioactive reference standards in the 1-octanol and the water phase by HPLC analysis and peak integration TEXT PRINTED IN THE PICTURE: FAPI-42: LOG D: -1.63±0.06 | FAPI-52: LOG D: -1.90±0.02 | FAPI-72: LOG D: 1.20±0.01* | FAPI-73: LOG D: 1.13±0.05* | FAPI-74: LOG D: -2.42±0.03 | FAPI-75: LOG D: -3.36±0.12 | FAPI-76: LOG D: -2.86±0.07

HT-1080-FAP xenografts = test: Small animal PET imaging; assay type: in vivo, BALB/c nu/nu mice; conditions: for Tumor Uptake (SUVmean) 8 min / Tumor Uptake (SUVmean) 22 min / Tumor Uptake (SUVmean) 57 min / Tumor Uptake (SUVmean) 120 min: HT1080-FAP transplanted nude mice
Method: Eight-week-old BALB/c nu/nu mice (Charles River) were subcutaneously inoculated with 5 × 10^6 HT-1080-FAP cells. The subcutaneous xenografts were grown at the flanks of the mice. Xenografts were grown to a tumor diameter of 10–15 mm. Mice were anesthetized using isoflurane inhalation. 5–10 MBq of the [^18F]AlF-labeled compounds/ the respective tracer (FAPI-42/52/74/75/76; approx. 0.5 nmol; Am approximately 10–20 GBq/µmol) were injected intravenously for PET imaging. In vivo competition (blocking) experiments with ^68 Ga-FAPI-74 (9 MBq; 18.2 GBq/µmol) were performed by adding 30 nmol of unlabeled FAPI-74 to the injection solution. Images were acquired using a small-animal PET scanner (Inveon, Siemens). Within the first 60 min p.i., a dynamic scan was performed in list mode, followed by a static scan from 120–140 min post injection. Images were reconstructed iteratively using the 3D-OSEM + MAP method (Siemens) and were converted to standardized uptake value (SUV). For the dynamic analysis, 28 frames were reconstructed. Quantification was based on ROI analysis and expressed as SUV.
SUPPLEMENTAL TABLE 1: Tumor-SUVmean values of all mentioned ^18F labeled FAPI-derivatives in HT1080-FAP transplanted nude mice at different time points. The time points 8 min, 22 min and 57 min were selected from the applied 28-frame 3D-OSEM+MAP (Siemens) reconstruction method.

[3] = molecular target: T2, FAP‐transfected HT‐1080‐FAP cells (Homo sapiens, UniProt Q12884); test: In vitro binding/uptake on FAP-transfected HT-1080-FAP cells; assay type: cell-based; conditions: HT1080-FAP cells; for uptake 10 min: 10 min incubation; for uptake 60 min: 60 min incubation; for uptake 120 min: 120 min incubation; for uptake, measurement at 90 min: printed in 120 min column, footnote a: 90 min
T2 construct: expressed in transfected cells; host or cells: HT-1080 cells transfected with FAP (HT-1080-FAP)
T2 sequence (Q12884 1-760): T1 sequence (Q12884 1-760)
Method: as §1

wild type HT1080 cells = test: In vitro binding on wild type HT1080 cells (negative control); assay type: cell-based
Method: as §1
Table 1 summarizes the uptake and EC50 values of the discussed ^18F-labeled FAPI derivatives using the FAP-transfected cell line HT-1080-FAP. Additionally, the lead candidates FAPI-74 to -76 were tested on HEK-CD26 as well as -74 and -75 on wild type HT1080 cells as negative control. […] For FAPI-74, a plateau was already reached after approximately 10 min with 27.2 ± 0.88%AD/10^6cells. […] The EC50 values were all in the low to sub-nanomolar range. Only a neglectable fraction of FAPIs 74–76 were detected on HEK-CD26 cells (0.18–0.24%) as well as on wildtype HT1080 in case of -74 and 75 (< 0.1%).

[4] = molecular target: T3, CD26 expressing HEK-CD26 cells (Homo sapiens, UniProt P27487); test: In vitro binding on HEK-CD26 cells (negative control); assay type: cell-based
T3 construct: expressed in transfected cells; host or cells: HEK cells transfected with CD26/DPP4 (HEK-CD26)
Method: as §1

[5] = radiolabeled tracer detected by radioactivity in 1-octanol and phosphate buffered saline
[6] = non-radioactive reference standards, 1-octanol and water phase, HPLC analysis and peak integration (asterisk)
[7] = small animal PET, HT-1080-FAP xenograft

T3 sequence (P27487 whole entry): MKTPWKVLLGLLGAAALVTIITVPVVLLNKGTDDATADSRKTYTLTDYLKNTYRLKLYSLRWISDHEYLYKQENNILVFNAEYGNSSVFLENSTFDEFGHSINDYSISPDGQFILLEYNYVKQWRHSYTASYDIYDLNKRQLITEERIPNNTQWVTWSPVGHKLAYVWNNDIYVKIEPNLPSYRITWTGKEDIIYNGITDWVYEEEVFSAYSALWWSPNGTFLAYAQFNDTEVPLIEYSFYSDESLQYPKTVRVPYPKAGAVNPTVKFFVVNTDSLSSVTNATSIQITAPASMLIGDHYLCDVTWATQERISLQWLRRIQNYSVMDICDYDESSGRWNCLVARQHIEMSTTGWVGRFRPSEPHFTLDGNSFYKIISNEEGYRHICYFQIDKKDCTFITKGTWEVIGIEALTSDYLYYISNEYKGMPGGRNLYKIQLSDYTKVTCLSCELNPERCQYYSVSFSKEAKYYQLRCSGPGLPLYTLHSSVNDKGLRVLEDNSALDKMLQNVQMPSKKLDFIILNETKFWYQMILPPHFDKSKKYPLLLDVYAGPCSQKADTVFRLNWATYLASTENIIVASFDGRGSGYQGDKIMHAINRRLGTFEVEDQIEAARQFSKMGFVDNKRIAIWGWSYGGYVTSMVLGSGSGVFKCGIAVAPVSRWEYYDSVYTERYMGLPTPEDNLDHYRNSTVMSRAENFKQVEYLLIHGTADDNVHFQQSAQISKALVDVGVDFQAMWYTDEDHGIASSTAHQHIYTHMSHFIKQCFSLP

Row | EC50 (FAP (HT-1080-FAP cells)) [nM] | logD [2, 5] | Tumor Uptake (SUVmean) 8 min (HT-1080-FAP xenografts) | Tumor Uptake (SUVmean) 22 min (HT-1080-FAP xenografts) | Tumor Uptake (SUVmean) 57 min (HT-1080-FAP xenografts) | Tumor Uptake (SUVmean) 120 min (HT-1080-FAP xenografts) | uptake 10 min [3] [%AD/10^6 cells] | uptake 60 min [3] [%AD/10^6 cells] | uptake 120 min [3] [%AD/10^6 cells] | logD [2, 6] | uptake, measurement at 90 min [3] | SMILES | detectability of tumor region in PET (HT-1080-FAP xenografts; [7]) | also measured
1 | 3.3 | -1.63 ± 0.06 | 1.05 | 1.0 | 0.73 | 0.60 | 40.0 ± 1.73 | 61.2 ± 1.76 | 58.0 ± 2.24 |  |  | N#C[C@@H]1CC(F)(F)CN1C(=O)CNC(=O)c1ccnc2ccc(OCCCN3CCN(C(=O)CN4CCN(CC(=O)O)CCN(CC(=O)O)CC4)CC3)cc12 [FAPI-42] |  | elimination and bone accumulation [1]: hepatobiliary elimination together with an accumulation in the bone; tumor uptake SUVmean at early timepoints (HT-1080-FAP xenografts; small animal PET screening, early timepoints): approx. 1.0
2 | 3.2 | -1.9 ± 0.02 | 0.65 | 0.55 | 0.47 | 0.20 | 32.0 ± 0.28 | 45.9 ± 0.54 | 53.2 ± 1.38 |  |  | CN(CCCN1CCN(C(=O)CN2CCN(CC(=O)O)CCN(CC(=O)O)CC2)CC1)c1ccc2nccc(C(=O)NCC(=O)N3CC(F)(F)C[C@H]3C#N)c2c1 [FAPI-52] |  | 
3 | < 1 |  | 0.19 | 0.15 | 0.13 | 0.1 | 13.9 ± 0.60 | 23.6 ± 0.40 |  | 1.2 ± 0.01 | 24.4 ± 0.30^a %AD/10^6 cells | CN(CCCN1CCN(C(=O)c2ccc([N+](C)(C)C)nc2)CC1)c1ccc2nccc(C(=O)NCC(=O)N3CC(F)(F)C[C@H]3C#N)c2c1 [FAPI-72] | hardly detectable | 
4 | < 1 |  | 0.45 | 0.44 | 0.42 | 0.33 | 22.7 ± 0.24 | 39.2 ± 0.48 |  | 1.13 ± 0.05 | 39.6 ± 0.95^a %AD/10^6 cells | C[N+](C)(C)c1ccc(C(=O)N2CCN(CCCOc3ccc4nccc(C(=O)NCC(=O)N5CC(F)(F)C[C@H]5C#N)c4c3)CC2)cn1 [FAPI-73] | hardly detectable | 
5 | 3.1 | -3.36 ± 0.12 | 1.55 | 2.06 | 2.24 | 1.9 | 34.9 ± 0.26 | 74.0 ± 2.07 | 82.35 ± 3.61 |  |  | N#C[C@@H]1CC(F)(F)CN1C(=O)CNC(=O)c1ccnc2ccc(OCCCN3CCN(C(=O)[C@H](CC(C(=O)O)C(=O)O)NC(=O)CN4CCN(CC(=O)O)CCN(CC(=O)O)CC4)CC3)cc12 [FAPI-75] |  | uptake WT (wild type HT1080 cells; wild type HT1080 control cells): 0.06 ± 0.01 %AD/10^6 cells; fraction detected on wildtype HT1080 (wild type HT1080 cells; wildtype HT1080, text): < 0.1%; excretion pathway (HT-1080-FAP xenografts; small animal PET in tumor bearing mice): favorable renal excretion; tumor uptake SUVmean (HT-1080-FAP xenografts; small animal PET screening, discussion): approx. 2.0; tumor-SUV max (HT-1080-FAP xenografts; [7]): 3.7; tumor-SUV mean (HT-1080-FAP xenografts; [7]): 2.2; uptake CD26 [4]: 0.18 ± 0.02 %AD/10^6 cells
